Measurements reported in patent US20250161216A1, “CATIONIC LIPID ANALOGUES, COMPOSITIONS AND USES THEREOF” (GUANGZHOU LIDE BIOMEDICINE TECHNOLOGY CO., LTD., priority 2022, published 2025).

Legend:
[1] = Characterization of the lipid nanoparticles prepared in Example 6; type: physicochemical; details: cationic lipid analogue:cholesterol:DSPC:DMG-PEG 50:38.5:10:1.5
Source text: The drug-loaded nanoparticle included a cationic lipid analogue, cholesterol, distearoylphosphatidylcholine (DSPC), and 1,2-dimyristoyl-rac-glycerol-3-methoxypolyethylene glycol (DMG-PEG), • wherein a molar ratio of the cationic lipid analogue:cholesterol:DSPC:DMG-PEG was 50:38.5:10:1.5.
In the drug-loaded nanoparticle, a mass ratio of the cationic lipid analogue to the nucleic acid drug, such as mRNA or siRNA, etc., was 11:1.
A cationic lipid analogue, cholesterol, DSPC, and DMG-PEG were dissolved in an ethanol solution, and mixed in the above-mentioned molar ratio to obtain an organic phase. Then, an mRNA nucleic acid drug at a corresponding mass ratio was dissolved in a sodium acetate buffer solution (25 mM, pH=3.0) to obtain an aqueous phase, so that a volume ratio of the aqueous phase to the organic phase was 3:1. Then, the aqueous phase was quickly added to the organic phase and mixed evenly, and the mixture was allowed to stand for 10 minutes. After that, the mixture was put into a 1000 Da dialysis bag, and dialyzed in a 1×PBS solution at 4° C. for 2 hours to obtain the nanoparticle that can be directly used for injection.

C57BL/6 mice [2] = test: In vivo expression level of Luciferase-mRNA delivered by intravenous injection (bioluminescence imaging); details: mRNA-loaded nanoparticles, intravenous (tail vein), 5 μg Luciferase-mRNA, 6 hours
How it was run: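 Lipid nanoparticles carrying 5 μg Luciferase-mRNA given by tail-vein injection to 6-8-week-old C57BL/6 mice. At 6 h, 3 mg D-luciferin i.p. in PBS; bioluminescence imaged 10 min later as the expression read-out.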

C57BL/6 mice [3] = test: In vivo expression level of Luciferase-mRNA delivered by intramuscular injection (bioluminescence imaging); details: mRNA-loaded nanoparticles, intramuscular (leg muscle), 5 μg Luciferase-mRNA, 6 hours
Method: Luciferase-mRNA was used as an mRNA model; and the cationic lipid analogues of Examples 1-5 were used to prepare drug-loaded nanoparticles according to the method of Example 6.
(§1) 100 μL of nanoparticles containing 5 μg Luciferase-mRNA or the drug-loaded nanoparticles prepared above were injected into the leg muscles of 6-8 week-old C57BL/6 mice, and 200 μL of 1×PBS solution containing 3 mg D-Luciferin potassium salt was intraperitoneally injected into the mice 6 hours later. After waiting for 10 minutes, an in vivo expression level of the mRNA was evaluated by bioluminescence imaging.

C57BL/6 mice [4] = test: In vivo expression level of Luciferase-mRNA delivered by intraperitoneal injection (bioluminescence imaging); details: mRNA-loaded nanoparticles, 5 μg Luciferase-mRNA, 6 hours
Method: (§2) Luciferase-mRNA was used as an mRNA model; and the cationic lipid analogue A1I4R22C18-2 of Example 2 was used to prepare drug-loaded nanoparticles according to the method of Example 6.
as §1, with “200 μL” for “100 μL”, “were intraperitoneally” for “were”, “into” for “into the leg muscles of”, “vivo mRNA” for “vivo”, “the m-RNA” for “the mRNA”

C57BL/6 mice [5] = test: In vivo expression level of Luciferase-mRNA delivered by tracheal injection (bioluminescence imaging); details: mRNA-loaded nanoparticles, 5 μg Luciferase-mRNA, 6 hours
Method: as §2
as §1, with “were tracheally” for “were”, “into” for “into the leg muscles of”, “min,” for “minutes,”, “vivo mRNA” for “vivo”, “level” for “level of the mRNA”

| SMILES | Diameter of the nanoparticles [1] [nm] | PDI [1] | Zeta potential [1] [mV] | encapsulation efficiency [1] [%] | Local fluorescence intensity (C57BL/6 mice [3]; compounds of Example 1) | Fluorescence intensity of spleen (C57BL/6 mice [2]; compounds of Example 2) | Local fluorescence intensity (C57BL/6 mice [3]; compounds of Example 2) | other results |
| --- | --- | --- | --- | --- | --- | --- | --- | --- |
| CCCCCCCCCCSSCCC(=O)N(CCO)C(C(=O)NCCN(CCNC(=O)C(C(C)C)N(CCO)C(=O)CCSSCCCCCCCCCC)CCNC(=O)C(C(C)C)N(CCO)C(=O)CCSSCCCCCCCCCC)C(C)C (stereo not shown) [A1I5R22S15] | 144 ± 7 | 0.22 | −7.2 | 65.4 |  |  |  | Fluorescence intensity of spleen (C57BL/6 mice [2]; compounds of Example 3): 3.40E+06; Local fluorescence intensity (C57BL/6 mice [3]; compounds of Example 3): 1.50E+06 |
| CCCCC/C=C\C/C=C\CCCCCCCC(=O)N(CCN(CCN(C(=O)CCCCCCC/C=C\C/C=C\CCCCC)C(C(=O)NCC(=O)OCC)C(C)C)CCN(C(=O)CCCCCCC/C=C\C/C=C\CCCCC)C(C(=O)NCC(=O)OCC)C(C)C)C(C(=O)NCC(=O)OCC)C(C)C (stereo not shown) [A1I32R47C18-2] | 150 ± 9 | 0.21 | −3.1 | 60.5 |  |  |  | Fluorescence intensity of spleen (C57BL/6 mice [2]; compounds of Example 5): 8.50E+03; Local fluorescence intensity (C57BL/6 mice [3]; compounds of Example 5): 3.68E+04 |
| CCCCC/C=C\C/C=C\CCCCCCCC(=O)N(CCCN(CC)CC)C(C(=O)NCCCCCCCCCCCCCCCCCC)C(CC)CCCC (stereo not shown) [A4I18R3C18-2] | 83 ± 9 | 0.12 | −3.2 | 75.3 | 3.08E+07 |  |  | Bioluminescence intensity (C57BL/6 mice [2]; compounds of Example 1): 2.29E+07 |
| CCCCC/C=C\C/C=C\CCCCCCCC(=O)N(CCO)C(C(=O)NCCN(C)CCNC(=O)C(C(C)C)N(CCO)C(=O)CCCCCCC/C=C\C/C=C\CCCCC)C(C)C (stereo not shown) [A1I4R22C18-2] | 133 ± 6 | 0.17 | −5.5 | 62.1 |  | 1.47E+06 | 2.69E+05 | Fluorescence intensity of spleen (C57BL/6 mice [4]): 6.48E+06; Fluorescence intensity of spleen (C57BL/6 mice [5]): 2.54E+05 |
| CCCCCCCCCCCCCCCCCC(=O)N(CCOC)C(C(=O)NCCN(C)CCNC(=O)C(C(CC)CCCC)N(CCOC)C(=O)CCCCCCCCCCCCCCCCC)C(CC)CCCC (stereo not shown) [A4I4R23C18] |  |  |  |  |  | 2.16E+05 | 6.36E+04 |  |
| CCCCC/C=C\C/C=C\CCCCCCCC(=O)N(CCCN(C)C)C(C(=O)NCCCCCCCCCCCCCCCCCC)C1CCCCC1 (stereo not shown) [A23I18R2C18-2] |  |  |  |  | 7.16E+05 |  |  | Fluorescence intensity of liver (C57BL/6 mice [2]; compounds of Example 1): 1.52E+06 |
| CCCCC/C=C\C/C=C\CCCCCCCC(=O)N(CCOC)C(C(=O)NCCN(C)CCNC(=O)C(C(C)C)N(CCOC)C(=O)CCCCCCC/C=C\C/C=C\CCCCC)C(C)C (stereo not shown) [A1I4R23C18-2] |  |  |  |  |  | 9.64E+05 | 8.72E+05 |  |
| CCCCCCCCCCCCCCCCCCNC(=O)C(C(CC)CCCC)N(CCCN(C)C)C(=O)CCCCCCCCCCCCCCCCC (stereo not shown) [A4I18R2C18] |  |  |  |  | 9.04E+05 |  |  | Fluorescence intensity of liver (C57BL/6 mice [2]; compounds of Example 1): 5.05E+05 |
| CCCCCCCCSSCCC(=O)N(CCO)C(C(=O)NCCN(CCNC(=O)C(C(C)C)N(CCO)C(=O)CCSSCCCCCCCC)CCNC(=O)C(C(C)C)N(CCO)C(=O)CCSSCCCCCCCC)C(C)C (stereo not shown) [A1I5R22S13] |  |  |  |  |  |  |  | Fluorescence intensity of spleen (C57BL/6 mice [2]; compounds of Example 3): 1.60E+06; Local fluorescence intensity (C57BL/6 mice [3]; compounds of Example 3): 5.74E+05 |
| CCCCC/C=C\C/C=C\CCCCCCCC(=O)N(CCN1CCCCC1)C(C(=O)NCCCCCCCCCCCCCCCCCC)C(CC)CCCC (stereo not shown) [A4I18R12C18-2] |  |  |  |  | 2.60E+05 |  |  | Fluorescence intensity of liver (C57BL/6 mice [2]; compounds of Example 1): 9.22E+03 |
| CCCCCCCC/C=C\CCCCCCCC(=O)N(CCO)C(C(=O)NCCN(C)CCNC(=O)C(C(C)C)N(CCO)C(=O)CCCCCCC/C=C\CCCCCCCC)C(C)C (stereo not shown) [A1I4R22C18-1] |  |  |  |  |  | 3.18E+05 | 2.86E+04 |  |
